Laboratory results as given in article PMC5471267, “Novel regulatory mechanism of serine biosynthesis associated with 3-phosphoglycerate dehydrogenase in Arabidopsis thaliana” (Scientific Reports, 2017).
Where “and” joins values, the source holds several entries; their conditions need not be identical. Identical values can stand only once.

Legend:
[1] = system: T1, AtPGDH-N2/C1; assay: 3-PGA oxidation, NADH absorbance at […] nm; Hill fit; format: biochemical, Arabidopsis thaliana; details: cooperative, 10 mM 3-PGA, 1 mM NAD+, 0.1 M NaCl, pH 9.0, 25 °C
T1 construct: gene PGDH2; one fused polypeptide: N-terminal half (catalytic domain) of AtPGDH2 + C-terminal half (ASB and ACT domains) of AtPGDH1; tag-free, E. coli; homotetramer

[2] = target: T2, AtPGDH1 (Arabidopsis thaliana, UniProt O49485); assay: 3-PGA oxidation, NADH absorbance at […] nm; Hill fit; format: biochemical
T2 construct: gene PGDH1; mature enzyme, predicted chloroplast transit peptide removed; eXact tag cleaved (tag-free); E. coli BL21 CodonPlus(DE3)-RIL; homotetramer
T2 sequence (O49485 59-603 limits assumed): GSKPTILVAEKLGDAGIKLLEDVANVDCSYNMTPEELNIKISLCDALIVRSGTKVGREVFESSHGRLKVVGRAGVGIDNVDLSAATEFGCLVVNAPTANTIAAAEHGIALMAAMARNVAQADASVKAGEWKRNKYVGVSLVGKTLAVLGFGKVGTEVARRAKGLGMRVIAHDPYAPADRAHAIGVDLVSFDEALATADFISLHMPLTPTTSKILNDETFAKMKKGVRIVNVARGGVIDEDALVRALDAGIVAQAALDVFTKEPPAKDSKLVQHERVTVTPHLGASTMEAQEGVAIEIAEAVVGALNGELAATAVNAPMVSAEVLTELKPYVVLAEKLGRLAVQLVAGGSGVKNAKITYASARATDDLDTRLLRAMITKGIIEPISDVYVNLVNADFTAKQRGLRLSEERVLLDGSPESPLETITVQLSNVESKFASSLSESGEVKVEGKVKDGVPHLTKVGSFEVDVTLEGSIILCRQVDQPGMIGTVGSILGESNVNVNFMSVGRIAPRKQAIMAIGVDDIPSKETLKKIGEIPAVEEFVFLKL

[3] = system: T3, AtPGDH-N1/C2; assay: 3-PGA oxidation, NADH absorbance at […] nm; Hill fit; format: biochemical, Arabidopsis thaliana; details: activator, cooperative; 10 mM 3-PGA, 1 mM NAD+, 0.1 M NaCl, pH 9.0, 25 °C
T3 construct: gene PGDH1; one fused polypeptide: N-terminal half (catalytic domain) of AtPGDH1 + C-terminal half (ASB and ACT domains) of AtPGDH2; tag-free, E. coli; mainly homotetramer, also multimers up to 20 subunits

[4] = target: T4, AtPGDH3 (Arabidopsis thaliana, UniProt Q9LT69); assay: 3-PGA oxidation, NADH absorbance at […] nm; Hill fit; format: biochemical
T4 construct: gene PGDH3; mature enzyme, predicted chloroplast transit peptide removed; eXact tag cleaved (tag-free); E. coli BL21 CodonPlus(DE3)-RIL; homotetramer
T4 sequence (Q9LT69 44-588 limits assumed): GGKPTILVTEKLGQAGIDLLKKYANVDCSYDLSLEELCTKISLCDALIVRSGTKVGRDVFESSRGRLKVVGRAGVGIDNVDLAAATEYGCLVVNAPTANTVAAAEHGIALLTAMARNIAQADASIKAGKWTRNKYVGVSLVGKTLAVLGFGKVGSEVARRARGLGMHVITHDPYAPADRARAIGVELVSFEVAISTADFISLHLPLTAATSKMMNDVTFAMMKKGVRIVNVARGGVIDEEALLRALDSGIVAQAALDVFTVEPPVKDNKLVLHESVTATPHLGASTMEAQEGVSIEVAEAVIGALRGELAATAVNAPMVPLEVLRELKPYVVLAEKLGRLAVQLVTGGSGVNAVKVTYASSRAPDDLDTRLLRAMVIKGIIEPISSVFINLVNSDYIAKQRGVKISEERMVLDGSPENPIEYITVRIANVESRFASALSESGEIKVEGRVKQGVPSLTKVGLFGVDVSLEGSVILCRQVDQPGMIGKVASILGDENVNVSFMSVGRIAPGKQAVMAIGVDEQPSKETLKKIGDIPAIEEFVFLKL

[5] = target: AtPGDH-N2/C1: chimera of the N-terminal half of AtPGDH2 and the C-terminal half of AtPGDH1 (A. thaliana); assay: SEC; HiLoad 26/600 Superdex 200 preparation grade column, flow rate 1 mL/min, 100 mM sodium phosphate buffer (pH 9.0); native molecular weight estimated from a standard curve of marker proteins; oligomer of the protein with itself
[6] = substrate: NC(=O)c1ccc[n+]([C@@H]2O[C@H](COP(=O)(O)OP(=O)(O)OC[C@H]3O[C@@H](n4cnc5c(N)ncnc54)[C@H](O)[C@@H]3O)[C@@H](O)[C@H]2O)c1; assay: purified protein; format: biochemical, Arabidopsis thaliana; details: 10 mM 3-PGA, 0.1 M NaCl, pH 9.0, 25 °C, varied: cofactor
[7] = substrate: O=C(O)[C@H](O)COP(=O)(O)O; assay: purified protein; format: biochemical, Arabidopsis thaliana; details: 1 mM NAD+, 0.1 M NaCl, pH 9.0, 25 °C
[8] = target: the molecule itself; assay: SEC; HiLoad 26/600 Superdex 200 preparation grade column, flow rate 1 mL/min, 100 mM sodium phosphate buffer (pH 9.0); native molecular weight estimated from a standard curve of marker proteins; oligomer of the protein with itself

**Q.** For C[C@H](N)C(=O)O [L-alanine], which EC50 ([1]; activator) is on record?
**A.** 2.6 ± 0.1 mM

**Q.** And the EC50 [2]?
**A.** 5.3 ± 0.2 mM

**Q.** And the EC50 [3]?
**A.** 3.7 ± 0.1 mM

**Q.** What about the EC50 [4] of the same molecule?
**A.** 4.9 ± 0.2 mM

**Q.** Which results are given for N[C@@H](CCS)C(=O)O [L-homocysteine]?
**A.** EC50 [2]: 0.023 mM; EC50 [4]: 0.069 mM

**Q.** With N[C@@H](CCO)C(=O)O [L-homoserine] as the molecule, how does the EC50 [2] read?
**A.** 3 ± 0.3 mM

**Q.** What about the EC50 [4] of the same molecule?
**A.** 9.2 ± 0.3 mM

**Q.** Which EC50 [2] does the source give for CSCC[C@H](N)C(=O)O [L-methionine] here?
**A.** 0.67 mM

**Q.** What about the EC50 [4] of the same molecule?
**A.** 2.5 ± 0.1 mM

**Q.** How did the EC50 ([1]; inhibitor) turn out when N[C@@H](CO)C(=O)O [L-serine] was run?
**A.** 2.7 ± 0.1 mM

**Q.** And the EC50 [2]?
**A.** 6.6 mM

**Q.** And the EC50 [4]?
**A.** 1.3 mM

**Q.** With CC(C)[C@H](N)C(=O)O [L-valine] as the molecule, how does the EC50 [2] read?
**A.** 7.1 ± 0.2 mM

**Q.** And the EC50 [4]?
**A.** 2.3 ± 0.2 mM

**Q.** “AtPGDH-N2/C1: chimera of the N-terminal half of AtPGDH2 and the C-terminal half of AtPGDH1 (enzyme)” was tested. Which stoichiometry N [5] did it give?
**A.** 4

B1: AtPGDH1 (Arabidopsis thaliana) (protein)
chain: T2 sequence (O49485 59-603 limits assumed)
notes: mature enzyme, predicted chloroplast transit peptide removed; eXact tag cleaved (tag-free); E. coli BL21 CodonPlus(DE3)-RIL; homotetramer
**Q.** With B1 as the molecule, how does the Km [6] read?
**A.** 50 ± 2 µM

**Q.** What about the kcat [6] of the same molecule?
**A.** 15 s⁻¹

**Q.** What about the Km [7] of the same molecule?
**A.** 500 ± 50 µM

**Q.** And the kcat [7]?
**A.** 15 s⁻¹

B2: AtPGDH3 (Arabidopsis thaliana) (protein)
chain: T4 sequence (Q9LT69 44-588 limits assumed)
notes: as for B1
**Q.** For B2, which Km [7] is on record?
**A.** 770 ± 90 µM

**Q.** And the kcat [7]?
**A.** 17 s⁻¹

B3: AtPGDH2 (Arabidopsis thaliana) (protein)
chain: LPKPRILVTEKLGEAGVNLLREFGDVDCSYDLSPEDLKKKVAESDALIVRSGTKVTREVFEAAKGRLKVVGRAGVGIDNVDLQAATEHGCLVVNAPTANTVAAAEHGIALLASMARNVAQADASIKAGKWERSKYVGVSLVGKTLAVMGFGKVGTEVARRAKGLGMTVISHDPYAPADRARALGVDLVSFDQAISTADFVSLHMPLTPATKKVFNDETFSKMKKGVRLINVARGGVIDEDALVRALDAGIVAQAALDVFCEEPPSKDSRLIQHENVTVTPHLGASTKEAQEGVAIEIAEAVAGALKGELSATAVNAPMVAPEVLSELTPYIVLAEKLGRLAVQLASGGKGVQSIRVVYRSARDRDDLDTRLLRAMITKGIIEPISDSYVNLVNADFIAKQKGLRISEERMVVDSSPEYPVDSIQVQILNVESNFAGAVSDAGDISIEGKVKYGVPHLTCVGSFGVDVSLEGNLILCRQVDQPGMIGQVGNILGEQNVNVNFMSVGRTVLRKQAIMAIGVDEEPDNKTLERIGGVSAIEEFVFLKL
notes: mature enzyme, predicted chloroplast transit peptide removed; eXact tag cleaved (tag-free); E. coli BL21 CodonPlus(DE3)-RIL; equilibrium of homooctamers and homotetramers
**Q.** B3 was tested. Which Km [6] did it give?
**A.** 123 ± 7 µM

**Q.** What about the kcat [6] of the same molecule?
**A.** 16 s⁻¹

**Q.** What about the Km [7] of the same molecule?
**A.** 1030 ± 70 µM

**Q.** And the kcat [7]?
**A.** 16 s⁻¹

B4: Arabidopsis thaliana 3-phosphoglycerate dehydrogenase 1 (AtPGDH1), recombinant, without the predicted transit peptide (enzyme, A. thaliana, UniProt O49485 55-603, looked up)
chain: STGDGSKPTILVAEKLGDAGIKLLEDVANVDCSYNMTPEELNIKISLCDALIVRSGTKVGREVFESSHGRLKVVGRAGVGIDNVDLSAATEFGCLVVNAPTANTIAAAEHGIALMAAMARNVAQADASVKAGEWKRNKYVGVSLVGKTLAVLGFGKVGTEVARRAKGLGMRVIAHDPYAPADRAHAIGVDLVSFDEALATADFISLHMPLTPTTSKILNDETFAKMKKGVRIVNVARGGVIDEDALVRALDAGIVAQAALDVFTKEPPAKDSKLVQHERVTVTPHLGASTMEAQEGVAIEIAEAVVGALNGELAATAVNAPMVSAEVLTELKPYVVLAEKLGRLAVQLVAGGSGVKNAKITYASARATDDLDTRLLRAMITKGIIEPISDVYVNLVNADFTAKQRGLRLSEERVLLDGSPESPLETITVQLSNVESKFASSLSESGEVKVEGKVKDGVPHLTKVGSFEVDVTLEGSIILCRQVDQPGMIGTVGSILGESNVNVNFMSVGRIAPRKQAIMAIGVDDIPSKETLKKIGEIPAVEEFVFLKL
notes: AtPGDH1 (At4g34200), A. thaliana; region that corresponds with the mature enzyme, the chloroplast transit peptide having been predicted by comparison with MtPGDH; theoretical molecular weight 57.5 kDa; The start of the 'mature' region is a prediction of the authors from an alignment with MtPGDH; also called At4g34200
**Q.** For B4, which “stoichiometry N” value [8] is on record?
**A.** 4

B5: Arabidopsis thaliana 3-phosphoglycerate dehydrogenase 3 (AtPGDH3), recombinant, without the predicted transit peptide (enzyme, A. thaliana, UniProt Q9LT69 39-588, looked up)
chain: SSSGGGGKPTILVTEKLGQAGIDLLKKYANVDCSYDLSLEELCTKISLCDALIVRSGTKVGRDVFESSRGRLKVVGRAGVGIDNVDLAAATEYGCLVVNAPTANTVAAAEHGIALLTAMARNIAQADASIKAGKWTRNKYVGVSLVGKTLAVLGFGKVGSEVARRARGLGMHVITHDPYAPADRARAIGVELVSFEVAISTADFISLHLPLTAATSKMMNDVTFAMMKKGVRIVNVARGGVIDEEALLRALDSGIVAQAALDVFTVEPPVKDNKLVLHESVTATPHLGASTMEAQEGVSIEVAEAVIGALRGELAATAVNAPMVPLEVLRELKPYVVLAEKLGRLAVQLVTGGSGVNAVKVTYASSRAPDDLDTRLLRAMVIKGIIEPISSVFINLVNSDYIAKQRGVKISEERMVLDGSPENPIEYITVRIANVESRFASALSESGEIKVEGRVKQGVPSLTKVGLFGVDVSLEGSVILCRQVDQPGMIGKVASILGDENVNVSFMSVGRIAPGKQAVMAIGVDEQPSKETLKKIGDIPAIEEFVFLKL
notes: region that corresponds with the mature enzyme, the chloroplast transit peptide having been predicted by comparison with MtPGDH; theoretical molecular weight 57.9 kDa; also called At3g19480
**Q.** How did the “stoichiometry N” value [8] turn out when B5 was run?
**A.** 4

B6: Arabidopsis thaliana 3-phosphoglycerate dehydrogenase 2 (AtPGDH2), recombinant, without the predicted transit peptide (enzyme, A. thaliana, UniProt O04130-1 50-624, looked up)
chain: AALKTVEQTTLTEDNRFSTVGSDSDEYNPTLPKPRILVTEKLGEAGVNLLREFGDVDCSYDLSPEDLKKKVAESDALIVRSGTKVTREVFEAAKGRLKVVGRAGVGIDNVDLQAATEHGCLVVNAPTANTVAAAEHGIALLASMARNVAQADASIKAGKWERSKYVGVSLVGKTLAVMGFGKVGTEVARRAKGLGMTVISHDPYAPADRARALGVDLVSFDQAISTADFVSLHMPLTPATKKVFNDETFSKMKKGVRLINVARGGVIDEDALVRALDAGIVAQAALDVFCEEPPSKDSRLIQHENVTVTPHLGASTKEAQEGVAIEIAEAVAGALKGELSATAVNAPMVAPEVLSELTPYIVLAEKLGRLAVQLASGGKGVQSIRVVYRSARDRDDLDTRLLRAMITKGIIEPISDSYVNLVNADFIAKQKGLRISEERMVVDSSPEYPVDSIQVQILNVESNFAGAVSDAGDISIEGKVKYGVPHLTCVGSFGVDVSLEGNLILCRQVDQPGMIGQVGNILGEQNVNVNFMSVGRTVLRKQAIMAIGVDEEPDNKTLERIGGVSAIEEFVFLKL
notes: AtPGDH2 (At1g17745), A. thaliana; region that corresponds with the mature enzyme, the chloroplast transit peptide having been predicted by comparison with MtPGDH; theoretical molecular weight 57.6 kDa; Found as an equilibrium of homooctamers and homotetramers; also called At1g17745
**Q.** For B6, which “stoichiometry N” value [8] is on record?
**A.** 8 and 4
